Earlier results as cited in US20110165235A1, “DIRECTLY PRESSED ALISKIREN TABLETS” (ratiopharm GmbH, priority 2008, published 2011).

Conditions: BCS classification

- solubility: high
SMILES: COCCCOc1cc(C[C@@H](C[C@H](N)[C@@H](O)C[C@H](C(=O)NCC(C)(C)C(N)=O)C(C)C)C(C)C)ccc1OC [Aliskiren, (2S,4S,5S,7S)-5-amino-N-(2-carbamoyl-2-methyl-propyl)-4-hydroxy-7-{[4-methoxy-3-(3-methoxypropoxy)phenyl]methyl}-8-methyl-2-propan-2-yl-nonanamide]
